Our source for the IC50 values is ChEMBL document CHEMBL5550186, “Exploring the Potential of Cyclic Peptidyl Antitumor Agents Derived from Natural Macrocyclic Peptide Phakellistatin 13” (J Med Chem, 2024).

In one series the test system is 4T1. The series is described as follows: Antiproliferative activity against mouse 4T1 cells incubated for 48 hrs by MTT assay. It is filed as functional, cell-based. To be noted: 4T1, 48 h. Background: Tetrazolium assays rely on reduction of a dye to a coloured formazan, in cell work by metabolically active cells.
The subject of the next series is HepG2. In words: Antiproliferative activity against human HepG2 cells incubated for 48 hrs by MTT assay. Format: functional, cell-based. The following applies: HepG2, 48 h.
The test system of a further series is BEL-7404 tumor cell line. The series is described as follows: Antiproliferative activity against human BEL-7404 tumor cell line incubated for 48 hrs by MTT assay. Format: functional, cell-based. The following applies: BEL-7404, 48 h.
Series [1] can be described thus: Antiproliferative activity against mouse L929 cells incubated for 48 hrs by MTT assay. It is filed as toxicity, cell-based.
Another series has as its system MDA-MB-231. The series is described as follows: Antiproliferative activity against human MDA-MB-231 cells incubated for 48 hrs by MTT assay. It is filed as functional, cell-based. The following applies: MDA-MB-231, 48 h.
The next series concerns HeLa. In words: Antiproliferative activity against human HeLa cells incubated for 48 hrs by MTT assay. Format: functional, cell-based.

Starred links: 1 amine or outer side, 2 acyl side, 3 side chain; linkers in the order of their positions; H or OH if unused. Non-standard residues stand in square brackets, D forms with d. Residues, ends and D or L forms follow the SMILES beside them. *: point of attachment. X1 = O=C1c2ccccc2[C@@](O)(CN(Cc2ccccc2)[*:1])N1CC(=O)[*:2]; X2 = O=C1c2ccccc2[C@](O)(CN(Cc2ccccc2)[*:1])N1CC(=O)[*:2]; Bn = c1ccc(C*)cc1

Regarding `CC(C)C[C@@H]1NC(=O)[C@H]([C@@H](C)OCc2ccccc2)NC(=O)[C@@H]2CCCN2C(=O)[C@H](Cc2ccccc2)NC(=O)[C@@H]2CCCN2C(=O)[C@H](Cc2c[nH]c3ccccc23)NC(=O)CN2C(=O)c3ccccc3[C@@]2(O)CN(Cc2ccccc2)C1=O` (cyclo(FPT(Bn)L[X1]WP)), the half-inhibitory concentration (IC50) in the series with 4T1 stood at 67.5 µM; in the series on HepG2, 31.1 µM; in the series with BEL-7404 tumor cell line, 28.7 µM; with MDA-MB-231, 14.4 µM; in the series on HeLa, 35.9 µM. Also, the IC50 at 48 h in series [1] was above 100 µM.
As to `CC(C)C[C@@H]1NC(=O)[C@H]([C@@H](C)OCc2ccccc2)NC(=O)CN2C(=O)c3ccccc3[C@]2(O)CN(Cc2ccccc2)C(=O)[C@@H]2CCCN2C(=O)[C@H](Cc2ccccc2)NC(=O)[C@@H]2CCCN2C(=O)[C@H](Cc2c[nH]c3ccccc23)NC1=O` (cyclo(FP[X2]T(Bn)LWP)), the IC50 is 65.9 µM in the series on 4T1; 32.6 µM in the series on HepG2; 38.9 µM with BEL-7404 tumor cell line; 26.1 µM in the series on MDA-MB-231; 50.8 µM with HeLa. In series [1], the IC50 at 48 h is above 100 µM.
Turning to `CC(C)C[C@@H]1NC(=O)CN2C(=O)c3ccccc3[C@]2(O)CN(Cc2ccccc2)C(=O)[C@H]([C@@H](C)OCc2ccccc2)NC(=O)[C@@H]2CCCN2C(=O)[C@H](Cc2ccccc2)NC(=O)[C@@H]2CCCN2C(=O)[C@H](Cc2c[nH]c3ccccc23)NC1=O` (cyclo(FPT(Bn)[X2]LWP)), the IC50 in the series with 4T1 turned out to be 58.9 µM; with HepG2, 35.5 µM; in the series on BEL-7404 tumor cell line, 41.7 µM; with MDA-MB-231 it was 32.6 µM; with HeLa, 55.6 µM. Moreover, in series [1], the concentration for half-maximal inhibition (IC50) at 48 h was above 100 µM.
With `CC(C)C[C@@H]1NC(=O)[C@H]([C@@H](C)O)NC(=O)[C@@H]2CCCN2C(=O)CNC(=O)[C@H](Cc2ccccc2)NC(=O)[C@@H]2CCCN2C(=O)[C@H](Cc2c[nH]c3ccccc23)NC1=O` [PHAKELLISTATIN 13] (cyclo(FGPTLWP)), the IC50 is 26.8 µM in the series with 4T1; 13.1 µM in the series on HepG2; 49.9 µM in the series on BEL-7404 tumor cell line; 20.5 µM in the series with MDA-MB-231; 28.1 µM in the series on HeLa. For the same compound, the IC50 at 48 h in series [1] is above 100 µM.
For `COc1cccc2c1C(=O)c1c(O)c3c(c(O)c1C2=O)C[C@@](O)(C(=O)CO)C[C@@H]3O[C@H]1C[C@H](N)[C@H](O)[C@H](C)O1` [DOXORUBICIN], the IC50 in the series with HepG2 is 26.6 µM; with HeLa it was 20.9 µM. Besides, in series [1], the half-inhibitory concentration (IC50) at 48 h was above 100 µM.
For `CC(C)C[C@@H]1NC(=O)[C@H]([C@@H](C)OCc2ccccc2)NC(=O)[C@@H]2CCCN2C(=O)CN2C(=O)c3ccccc3[C@@]2(O)CN(Cc2ccccc2)C(=O)[C@H](Cc2ccccc2)NC(=O)[C@@H]2CCCN2C(=O)[C@H](Cc2c[nH]c3ccccc23)NC1=O`, the IC50 with 4T1 was 54.7 µM; in the series with HepG2, 24.1 µM; in the series with BEL-7404 tumor cell line, 30 µM; in the series on MDA-MB-231, 15.4 µM; in the series with HeLa it was 28.6 µM. The compound also came in with an IC50 at 48 h in series [1] above 100 µM.
With `CC(C)C[C@@H]1NC(=O)[C@H]([C@@H](C)OCc2ccccc2)NC(=O)[C@@H]2CCCN2C(=O)[C@H](Cc2ccccc2)NC(=O)[C@@H]2CCCN2C(=O)CN2C(=O)c3ccccc3[C@]2(O)CN(Cc2ccccc2)C(=O)[C@H](Cc2c[nH]c3ccccc23)NC1=O` (cyclo(FPT(Bn)LW[X2]P)), the IC50 in the series with 4T1 was 65.2 µM; in the series on HepG2, 44.3 µM; in the series with BEL-7404 tumor cell line it was 36.1 µM; in the series with MDA-MB-231, 14 µM; in the series with HeLa it was 52.8 µM. The compound further displayed a half-maximal inhibitory concentration (IC50) at 48 h in series [1] above 100 µM.
In the case of `CC(C)C[C@@H]1NC(=O)[C@H]([C@@H](C)OCc2ccccc2)NC(=O)[C@@H]2CCCN2C(=O)[C@H](Cc2ccccc2)NC(=O)CN2C(=O)c3ccccc3[C@@]2(O)CN(Cc2ccccc2)C(=O)[C@@H]2CCCN2C(=O)[C@H](Cc2c[nH]c3ccccc23)NC1=O` (cyclo(FPT(Bn)LWP[X1])), the concentration for half-maximal inhibition (IC50) turned out to be 42.6 µM in the series on 4T1; 28.9 µM with HepG2; 30.2 µM in the series with BEL-7404 tumor cell line; 29.3 µM in the series with MDA-MB-231; 33.9 µM in the series on HeLa. Besides, the 50% inhibitory concentration (IC50) at 48 h in series [1] is above 100 µM.
Turning to `CC(C)C[C@H]1NC(=O)[C@@H]([C@H](C)OCc2ccccc2)NC(=O)[C@H]2CCCN2C(=O)CN2C(=O)c3ccccc3[C@@]2(O)CN(Cc2ccccc2)C(=O)[C@@H](Cc2ccccc2)NC(=O)[C@H]2CCCN2C(=O)[C@@H](Cc2c[nH]c3ccccc23)NC1=O`, the concentration for half-maximal inhibition (IC50) stood at 42.4 µM with 4T1; 29 µM in the series with HepG2; 25.7 µM in the series with BEL-7404 tumor cell line; 17.8 µM with MDA-MB-231; 31 µM in the series on HeLa. Further, in series [1], the IC50 at 48 h is above 100 µM.

The term IC50 denotes the concentration that gives 50% inhibition. The low end stands for greater potency, the high end for weaker potency.
